Assays:
[1] = tested on: Caco-2 HTB-37 (human colon adenocarinoma); test: Absorption testing using Caco-2 cells (cellular uptake of CoQ10, HPLC); assay type: in vitro ADME; settings: 37° C., up to 2 h
Protocol: Caco-2 HTB-37 (human colon adenocarinoma), obtained from ATCC, were cultured in DMEM (Dulbecco/Vogt modified Eagle's minimal essential medium) containing 20% FCS (Fetal Calf Serum), 1% nonessential amino acids, 0.83 mM L-glutamine and 1% penicillin-streptomycin at 37° C. in a humified atmosphere of CO2. Cells were grown in 75 cm^2 culture-flasks (T75) and their medium was replaced every third day. As soon as confluency was reached—once a week—they were split using trypsin.
After discarding the old medium, the monolayer was washed with 10 mL PBS. Subsequently, 3 mL trypsin was added in order to detach the cells. […]
The remaining 9 mL cell-suspension was used for experiments and was therefore transferred into a 15 mL falcon. After the cells had been counted by using a Neubauer-chamber, cells were seeded into 6 Well Thin Certs and 6 Wells at a density of 3×10^5 and 6.76×10^5, respectively. […]
The optimum amount of the emulsifier lecithin had to be determined individually for each sample. […]
A reversed-phase column (Spherimage-80) with 5 μm pore size and […] was used. […] Coenzyme Q10 (oxidized and reduced) were monitored at 275 nm.
CoQ10 was determined in the media (outside the cells) and in the cells. Both, oxidized and reduced CoQ10, were quantified. […]

[2] = tested on: Human LDL; test: Prevention of LDL oxidation (CuSO4-initiated conjugated diene formation at 234 nm); assay type: biochemical; settings: LDL 0.1 mg/ml
Protocol: Human LDL were obtained by ultracentrifugation from fresh human blood, followed by dialysis against in 10 mM PBS (pH 7.4) at 4° C. in the dark for 24 h. LDL (0.1 mg/ml) were mixed with different amounts of active constituents. Reaction was initiated by adding a solution of CuSO4 (10 μM); samples were then incubated at 37° C. for 22 h. The formation of conjugated diene was measured at 234 nm using a Hewlett-Packard spectrophotometer (Agilent, Palo Alto).
Data evaluation was performed by comparison of the slope of increase in diene-formation. The steepest slope (i.e. without addition of anti-oxidants) was set to 100%. Results are given as relative %.
The lag-time until start of diene formation was estimated from the kinetic curves obtained. Results are given in minutes.

Compound: COC1=C(OC)C(=O)C(C/C=C(\C)CC/C=C(\C)CC/C=C(\C)CC/C=C(\C)CC/C=C(\C)CC/C=C(\C)CC/C=C(\C)CC/C=C(\C)CC/C=C(\C)CCC=C(C)C)=C(C)C1=O [CoQ10]
- content of CoQ10 in the media during the incubation conditions [1]: stable
- Inhibition ([2]; 0.1 mg/mL of CoQ10): 13%
- Residual activity ([2]; 0.1 mg/mL of CoQ10): 87%
- Inhibition ([2]; 1 mg/mL of CoQ10): 43%
- Residual activity ([2]; 1 mg/mL of CoQ10): 57%
- Inhibition ([2]; 1 mg/mL of CoQ10, listed as CoQ-10): about 43%
- Inhibition ([2]; 10 mg/mL of CoQ10): 68%
- Residual activity ([2]; 10 mg/mL of CoQ10): 32%
- Lag Time ([2]; lag time to start of LDL-oxidation, Co Q10 1 mg/mL): 146 min

— patent US20090143484A1, “USE OF GARLIC OIL TO INCREASE BIOAVAILABILITY OF COENZYME Q-10” (priority 2007, published 2009)
